# According to patent US7638540B2, “Benzofuran compound and medicinal composition containing the same” (The New Industry Research Organization, priority 2003, dated 2009):
row,melting point,SMILES
1,121 to 123 °C,"CCN(CC)C(=O)/C=C(\C)c1cc2c(Br)cc(Br)c(OCCCC(=O)O)c2o1 [Example 31, (E)-4-[4,6-dibromo-2-(2-diethylcarbamoyl-1-methylvinyl)benzofuran-7-yloxy]butyric acid]"
2,155 to 157 °C,"CCN(CC)C(=O)/C=C(\C)c1ccc2oc(C(=O)Nc3cccc(OC)c3)c(N)c2c1 [Example 158, (E)-3-amino-5-(2-diethylcarbamoyl-1-methylvinyl)benzofurane-2-carboxylic acid (3-methoxyphenyl)amide]"
3,237.5 to 239.1 °C,"COc1ccc(CCNC(=O)/C=C(\C)c2ccc(C(=O)c3oc4c(OC)cccc4c3NC(=O)c3cnoc3C)cc2)cc1OC [Example 84, (E)-N-[2-(4-{2-[2-(3,4-dimethoxyphenyl)ethylcarbamoyl]-1-methylvinyl}benzoyl)-7-methoxybenzofuran-3-yl]-5-methylisoxazole-4-carboxamide]"
4,194.6 to 196.5 °C,"CCOC(=O)/C=C(\C)c1ccc2oc(/C(Cl)=C/C=C/C(=O)N3CCOCC3)cc2c1 [Example 148, Ethyl 3-[2-(1-chloro-5-morpholin-4-yl-5-oxo-penta-(1Z,3E)-1,3-dienyl)benzofuran-5-yl]-(E)-2-butenoate]"
5,60.1 to 62 °C,"CCN(CC)C(=O)/C=C(/C)c1oc2ccc(Br)cc2c1C [Example 153, (Z)-3-(5-bromo-3-methylbenzofuran-2-yl)-2-butenoic acid diethylamide]"
6,235.3 to 237.8 °C,"COc1ccc(Br)c2c(NC(C)=O)c(C(C)=O)oc12 [Example 211, N-(2-acetyl-4-bromo-7-methoxybenzofuran-3-yl)acetamide]"
7,185.4 to 186.6 °C,"COc1cccc2cc(/C(Cl)=C/C=C/C(=O)N3CCOCC3)oc12 [Example 138, (2E,4Z)-5-chloro-5-(7-methoxybenzofuran-2-yl)-1-morpholin-4-ylpenta-2,4-dien-1-one]"
8,130.2 to 132.9 °C,"CC(=O)OC(C)c1oc2ccccc2c1NC(=O)c1cnoc1C (stereo not shown) [Example 76, 1-{3-[(5-methylisoxazole-4-carbonyl)amino]benzofuran-2-yl}ethyl acetate]"
9,206.3 to 208.3 °C,"C/C(O)=C(\C#N)C(=O)Nc1c(C#N)oc2ccc(Br)cc12 [Example 104, (Z)-N-(5-bromo-2-cyanobenzofuran-3-yl)-2-cyano-3-hydroxy-2-butenamide]"
10,250.7 to 252.6 °C,"Cc1oncc1C(=O)Nc1c(C(N)=O)oc2ccccc12 [Example 79, N-(2-carbamoylbenzofuran-3-yl)-5-methylisoxazole-4-carboxamide]"
11,133.7 to 135.4 °C,"CCOC(=O)C(CSCc1ccccc1)NC(=O)/C=C/C=C(\Cl)c1cc2cc(Br)ccc2o1 (stereo not shown) [Example 64, Ethyl (2E,4Z)-3-benzylsulfanyl-2-[5-(5-bromobenzofuran-2-yl)-5-chloropenta-2,4-dienoylamino]propionate]"
12,126.9 to 129.4 °C,"COc1ccc(CCNC(=O)/C=C(\C)c2ccc3oc(C(=O)c4ccccc4)cc3c2)cc1OC [Example 24, (E)-3-(2-benzoylbenzofuran-5-yl)-N-[2-(3,4-dimethoxyphenyl)ethyl]-2-butenamide]"
13,234.5 to 241.5 °C,"COc1cccc(NC(=O)c2oc3ccc(Br)cc3c2NC(=O)/C(C#N)=C(/C)O)c1 [Example 188, (Z)-5-bromo-3-(2-cyano-3-hydroxy-2-butenoylamino)benzofurane-2-carboxylic acid (3-methoxyphenyl)amide]"
14,221.9 to 222.4 °C,"CC(=O)c1oc2ccc(Br)cc2c1NC(=O)/C(C#N)=C(/C)O [Example 96, (Z)-N-(2-acetyl-5-bromobenzofuran-3-yl)-2-cyano-3-hydroxy-2-butenamide]"
15,236.5 to 237.8 °C,"COc1cccc2c(NC(=O)/C=C/c3ccccc3)c(C(=O)c3ccc(Br)cc3)oc12 [Example 179, (E)-N-[2-(4-bromobenzoyl)-7-methoxybenzofuran-3-yl]-3-phenylacrylamide]"
16,152.5 to 154.8 °C,"O=C(O)CCCOc1cccc2cc(C(Cl)=CC=CC(=O)N3CCOCC3)oc12 (stereo in doubt) [Example 147, (2E,4Z)-4-[2-(1-chloro-5-morpholin-4-yl-5-oxo-penta-1,3-dienyl)benzofuran-7-yloxy]butyric acid]"
17,216 to 217 °C,"C/C=C/C(=O)Nc1c(Cl)oc2c(OC)cccc12 [Example 187, (E)-2-butenoic acid (2-chloro-7-methoxybenzofuran-3-yl)amide]"
18,312.2 to 348.6 °C,"COc1cccc2c(NC(=O)CC#N)c(C(=O)c3ccc(Br)cc3)oc12 [Example 198, N-[2-(4-bromobenzoyl)-7-methoxybenzofuran-3-yl]-2-cyanoacetamide]"
19,191.8 to 193.6 °C,"COc1ccc(NC(=O)/C=C(\C)c2cc3cccc(OC(c4ccccc4)c4ccccc4)c3o2)cc1 [Example 41, (E)-3-(7-benzhydryloxybenzofuran-2-yl)-N-(4-methoxyphenyl)-2-butenamide]"
20,220.4 to 223.5 °C,"CC(=O)c1cc2cc(/C(C)=C/C(=O)O)ccc2o1 [Example 134, (E)-3-(2-acetylbenzofuran-5-yl)-2-butenoic acid]"

row,melting point,SMILES
1,132.1 to 136.5 °C,"CC(=O)c1cc2c(/C(C)=C/C(=O)N3CCN(Cc4ccccc4)CC3)ccc(OC(c3ccccc3)c3ccccc3)c2o1 [Example 12, (E)-3-(2-acetyl-7-benzhydryloxybenzofuran-4-yl)-1-(4-benzylpiperazin-1-yl)-2-buten-1-one]"
2,168.9 to 170 °C,"COc1ccc(NC(=O)/C=C(\C)c2oc3c(Cl)cccc3c2-c2ccc(Cl)cc2)cc1 [Example 143, (E)-3-[7-chloro-3-(4-chlorophenyl)benzofuran-2-yl]-2-butenoic acid (4-methoxyphenyl)-amide]"
3,149 to 150 °C,"COc1ccc(CCNC(=O)/C=C/C=C(\Cl)c2cc3cccc(OCCCCl)c3o2)cc1OC [Example 60, (2E,4Z)-5-chloro-5-[7-(3-chloropropoxy)benzofuran-2-yl]penta-2,4-dienoic acid [2-(3,4-dimethoxyphenyl)ethyl]amide]"
4,67 to 69.5 °C,"CCOC(=O)CCCOc1cccc2cc(/C(Cl)=C/C=O)oc12 [Example 140, Ethyl 4-[2-(1-chloro-3-oxopropenyl)benzofuran-7-yloxy]-butyrate]"
5,125.2 to 128.8 °C,"Cc1oncc1C(=O)Nc1c(C(C)O)oc2ccc(Br)cc12 (stereo not shown) [Example 70, N-[5-bromo-2-(1-hydroxyethyl)benzofuran-3-yl]-5-methylisoxazole-4-carboxamide]"
6,261.5 to 262.8 °C,"C/C(O)=C(\C#N)C(=O)Nc1c(C(=O)/C=C/c2ccccc2)oc2ccc(Br)cc12 [Example 174, 2-cyano-3-hydroxy-(Z)-2-butenoic acid [5-bromo-2-((E)-3-phenylacryloyl)benzofuran-3-yl]amide]"
7,171.2 to 171.8 °C,"O=C(/C=C/c1ccccc1)Nc1c(C(=O)c2ccc(Cl)cc2)oc2ccc(Br)cc12 [Example 113, (E)-N-[5-bromo-2-(4-chlorobenzoyl)benzofuran-3-yl]-3-phenylacrylamide]"
8,174 to 177 °C,"CC(=O)c1oc2ccccc2c1NC(=O)c1cnoc1C [Example 69, N-(2-acetylbenzofuran-3-yl)-5-methylisoxazole-4-carboxamide]"
9,147.5 to 150.1 °C,"CCOC(=O)c1oc2ccccc2c1NC(=O)/C(C#N)=C(/C)O [Example 107, Ethyl (Z)-3-(2-cyano-3-hydroxy-2-butenoylamino)benzofurane-2-carboxylate]"
10,93.9 to 94.5 °C,"COc1ccc(NC(=O)/C=C(/C)c2cc3cccc(OC(c4ccccc4)c4ccccc4)c3o2)cc1OC [Example 43, (Z)-3-(7-benzhydryloxybenzofuran-2-yl)-N-(3,4-dimethoxyphenyl)-2-butenamide]"
11,169.1 to 170.2 °C,"COc1cccc2c(NC(=O)CCCl)c(C(C)=O)oc12 [Example 204, N-(2-acetyl-7-methoxybenzofuran-3-yl)-3-chloropropionamide]"
12,162.6 to 165.5 °C,"COc1ccc(CCNC(=O)/C=C(\C)c2ccc3oc(C(=O)c4ccc(C#N)cc4)c(NC(=O)c4cnoc4C)c3c2)cc1OC [Example 90, (E)-N-(2-(4-cyanobenzoyl)-5-{2-[2-(3,4-dimethoxyphenyl)ethylcarbamoyl]-1-methylvinyl}benzofuran-3-yl)-5-methylisoxazole-4-carboxamide]"
13,240.8 to 243.2 °C,"Cc1oncc1C(=O)Nc1c(C(=O)c2ccc(Cl)cc2)oc2ccc(Br)cc12 [Example 77, N-[5-bromo-2-(4-chlorobenzoyl)benzofuran-3-yl]-5-methylisoxazole-4-carboxamide]"
14,166 to 168.2 °C,"CCOC(=O)c1oc2ccccc2c1NC(=O)c1cnoc1C [Example 68, Ethyl 3-[(5-methylisoxazole-4-carbonyl)amino]benzofurane-2-carboxylate]"
15,159.5 to 162 °C,"CCOC(=O)c1oc2ccc(/C(C)=C/C(=O)N(CC)CC)cc2c1N [Example 15, Ethyl (E)-3-amino-5-(2-diethylcarbamoyl-1-methylvinyl)benzofurane-2-carboxylate]"
16,201.8 to 205.9 °C,"COc1ccc(NC(=O)c2cnoc2C)c2cc(C(C)=O)oc12 [Example 111, N-(2-acetyl-7-methoxybenzofuran-4-yl)-5-methylisoxazole-4-carboxamide]"
17,185.5 to 187.8 °C,"Brc1ccc2oc(-c3csc(-c4ccccc4)n3)cc2c1 [Example 212, 4-(5-bromobenzofuran-2-yl)-2-phenylthiazole]"
18,207.2 to 208.9 °C,"COc1cccc2c(NC(=O)/C(C#N)=C(/C)O)c(C(C)=O)oc12 [Example 102, (Z)-N-(2-acetyl-7-methoxybenzofuran-3-yl)-2-cyano-3-hydroxy-2-butenamide]"
19,169.9 to 173.2 °C,"C/C(O)=C(/C#N)C(=O)NC(C)c1cc2cccc(OCC(=O)O)c2o1 (stereo not shown) [Example 127, (E)-{2-[1-(2-cyano-3-hydroxy-2-butenoylamino)ethyl]benzofuran-7-yloxy}acetic acid]"
20,165.5 to 166 °C,"Clc1ccc(-c2c(-c3csc(-c4ccccc4)n3)oc3c(Cl)cccc23)cc1 [Example 213, 4-[7-chloro-3-(4-chlorophenyl)benzofuran-2-yl]-2-phenylthiazole]"
